Reference: patent US10206911B2, “Androgen receptor variants and methods for making and using” (MEMORIAL SLOAN-KETTERING CANCER CENTER, priority 2012, dated 2019)
Residue numbers refer to the chain shown, from its start. “Also recorded” adds a separate entry of the source.

Key:
AR F876L = target: T1, AR F876L (Homo sapiens, UniProt P10275, DEL79-80/DUP473-473/F877L); experiment: EGFP reporter assay of AR activity, LNCaP-Pb.PSE.EGFP cells, flow cytometry; format: cell-based; conditions: 10 μM, 4 days of treatment
T1 construct: expressed in transfected cells
T1 sequence (P10275 with tags, fused parts or gaps DEL79-80/DUP473-473/F877L): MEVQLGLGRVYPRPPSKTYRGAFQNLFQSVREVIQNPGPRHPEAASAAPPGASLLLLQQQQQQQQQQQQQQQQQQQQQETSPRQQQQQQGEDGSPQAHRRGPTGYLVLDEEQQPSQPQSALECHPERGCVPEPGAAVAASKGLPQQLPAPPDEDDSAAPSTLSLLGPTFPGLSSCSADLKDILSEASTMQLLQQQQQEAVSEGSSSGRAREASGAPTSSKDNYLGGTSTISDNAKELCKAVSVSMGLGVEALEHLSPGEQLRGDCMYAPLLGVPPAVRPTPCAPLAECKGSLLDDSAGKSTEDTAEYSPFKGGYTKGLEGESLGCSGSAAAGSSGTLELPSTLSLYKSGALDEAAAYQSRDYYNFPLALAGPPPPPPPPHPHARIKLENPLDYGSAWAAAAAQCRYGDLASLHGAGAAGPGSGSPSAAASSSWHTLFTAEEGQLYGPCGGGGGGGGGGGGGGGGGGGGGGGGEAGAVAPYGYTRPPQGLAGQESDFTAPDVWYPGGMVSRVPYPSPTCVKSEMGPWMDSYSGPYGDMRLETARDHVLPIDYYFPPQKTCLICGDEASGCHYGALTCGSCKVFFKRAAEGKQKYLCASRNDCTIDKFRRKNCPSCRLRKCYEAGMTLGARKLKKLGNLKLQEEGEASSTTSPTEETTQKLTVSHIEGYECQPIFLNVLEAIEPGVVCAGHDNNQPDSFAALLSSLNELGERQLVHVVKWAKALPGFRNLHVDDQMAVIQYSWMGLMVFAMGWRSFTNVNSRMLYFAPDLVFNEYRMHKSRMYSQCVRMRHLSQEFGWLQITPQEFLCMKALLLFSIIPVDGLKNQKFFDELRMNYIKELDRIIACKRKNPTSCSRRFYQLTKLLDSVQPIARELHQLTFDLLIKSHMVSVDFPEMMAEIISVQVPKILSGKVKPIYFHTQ
From the text: (§1) This clone was used for all flow cytometry assays and for the FACS-based resistance screens.

AR WT = target: T2, AR WT (Homo sapiens, UniProt P10275, DEL79-80/DUP473-473); experiment: as above; format: cell-based; conditions: 10 μM, 4 days of treatment
T2 construct: expressed in transfected cells; host or cells: LNCaP-Pb.PSE.EGFP (pantropic retroviral infection, blasticidin selection)
T2 sequence (P10275 with tags, fused parts or gaps DEL79-80/DUP473-473): T1 sequence (P10275 with tags, fused parts or gaps DEL79-80/DUP473-473/F877L) with L876F
From the text: as §1

[1] = tested on: DU145 (an AR null human prostate cancer cell line); experiment: DU145 cell viability (CellTiterGLO); format: cell-based; conditions: 10 μM, full serum containing media
Experimental: DU145 cells were cultured in full serum containing media with 10 uM of the indicated antiandrogens. CellTiterGLO assay was performed on days 0, 3, and 6 to determine cell viability. RLU=relative light units.

[2] = tested on: AR mutants isolated from drug resistant LNCaP/AR xenograft tumors; experiment: Luciferase reporter assay of AR activity in androgen depleted media, CV1 cells; format: cell-based, human; conditions: 10 μm antiandrogen
[3] = tested on: AR mutants isolated from drug resistant LNCaP/AR xenograft tumors; experiment: EGFP reporter assay of AR activity, LNCaP/Pb.PSE.EGFP cells; format: cell-based, human; conditions: androgen containing media, 10 μM antiandrogen
Experimental: Additionally, EGFP reporter assays of AR activity in cells expressing the indicated AR mutants were performed and the data are presented in FIG. 21A and FIG. 21B.

[4] = tested on: AR mutants isolated from drug resistant CWR22Pc cells; experiment: EGFP reporter assay and qRT-PCR, LNCaP/Pb.PSE.EGFP cells; format: cell-based, human; conditions: 10 μM antiandrogen; variable degrees, gene-specific differences
AR T877A = target: T3, AR T877A (Homo sapiens, UniProt P10275, DEL79-80/DUP473-473/T878A); experiment: AR luciferase reporter assay (ARE(4X)-luciferase) in CV1 cells; format: cell-based; conditions: 10 μM antiandrogen
T3 construct: expressed in transfected cells; host or cells: CV1
T3 sequence (P10275 with tags, fused parts or gaps DEL79-80/DUP473-473/T878A): T1 sequence (P10275 with tags, fused parts or gaps DEL79-80/DUP473-473/F877L) with L876F, T877A
Experimental: Transfection media was removed 4-6 hours later and replaced with phenol red free DME-HG containing 10% charcoal stripped serum. The following day each plate was split into 24- or 48-well plates, in 10% CSS media, containing the indicated drugs in triplicate. Twenty-four to forty-eight hours later, luciferase activity was assayed using Dual-Luciferase Reporter Assay System (Promega) on a 96-well luminometer (Turner Biosystems).

[5] = tested on: VCaP cells overexpressing AR WT; experiment: VCaP growth assay (CellTiter-GLO); format: cell-based, human; conditions: full-serum containing media, 10 μM
[6] = tested on: CWR22PC cells expressing AR WT; experiment: CWR22PC cell viability (CellTiterGLO); format: cell-based, human; conditions: full serum media; days 1, 4, and 7
Experimental: […]. […] CellTiterGLO assay was performed on days 1, 4, and 7 to measure cell viability. […] CellTiterGLO assay was performed on days 1, 4, and 7 to measure cell viability.
[…]. […] CellTiterGLO assay was performed on days 1, 4, and 7 to determine cell viability. RLU=relative light units.

[7] = tested on: LNCaP/AR cells ectopically expressing AR WT; experiment: LNCaP/AR xenograft, time to tumor progression; format: in vivo, castrated male SCID mice; conditions: 30 mg/kg enzalutamide, daily gavage, castrate SCID mice
Experimental: Daily gavage treatment (using a formulation of 1% carboxymethyl cellulose, 0.1% Tween-80, 5% DMSO) was initiated on the day of injection. Once tumors were palpable, tumor size was measured weekly in three dimensions (1×w×d) with calipers.

[8] = tested on: VCaP cells overexpressing AR F876L; experiment: VCaP growth assay (CellTiter-GLO); format: cell-based, human; conditions: full-serum containing media, 10 μM

For `CNC(=O)c1ccc(N2C(=S)N(c3ccc(C#N)c(C(F)(F)F)c3)C(=O)C23CCC(C)(C)CC3)cc1F` [DR104, 4-(3-(4-cyano-3-(trifluoromethyl)phenyl)-8,8-dimethyl-4-oxo-2-thioxo-1,3-diazaspiro[4.5]decan-1-yl)-2-fluoro-N-methylbenzamide], the “Effect on transcriptional activity of AR F876L in EGFP reporter assay (agonism or antagonism)” value (AR F876L) was “modest agonist”, the “Effect on transcriptional activity of AR WT in EGFP reporter assay (agonism or antagonism)” value (AR WT) was “antagonist” and the “Proliferation of DU145 cells” value [1] was “no significant growth inhibition”.

For `CNC(=O)c1ccc(N2C(=S)N(c3cnc(C#N)c(C(F)(F)F)c3)C(=O)C23CCC3)cc1F` [ARN-509], the “Agonism on AR mutants, luciferase reporter” value [2] was “none of the mutants conferred agonism”, the “Sensitivity of AR mutants, EGFP reporter” value [3] was “still remained sensitive” and the “Sensitivity of AR mutants, EGFP reporter assay & qRT-PCR” value [4] was “still remained sensitive”.

`CC(C)(O)C(=O)Nc1ccc([N+](=O)[O-])c(C(F)(F)F)c1` [hydroxyflutamide] was tested, and the “Agonism in luciferase reporter” value (AR T877A) was “confer agonism”.

`CNC(=O)c1ccc(N2C(=S)N(c3ccc(C#N)c(C(F)(F)F)c3)C(=O)C2(C)C)cc1F` [enzalutamide] was tested, and the “Growth of VCaP cells, AR WT” value [5] was “only inhibit the growth of VCaP/AR WT; also recorded: potently inhibits the growth”, the “Growth/viability of CWR22PC cells, AR WT” value [6] was “very sensitive” and the “Growth of wild-type AR tumors” value [7] was “almost completely inhibited”. The “Agonism on AR mutants, luciferase reporter” value [2] was “none of the mutants conferred agonism”, the “Sensitivity of AR mutants, EGFP reporter” value [3] was “still remained sensitive” and the “Sensitivity of AR mutants, EGFP reporter assay & qRT-PCR” value [4] was “still remained sensitive”.

`CNC(=O)c1ccc(N2CC(=O)N(c3ccc(C#N)c(C(F)(F)F)c3)C2=S)cc1F` [DR107, 4-(3-(4-cyano-3-(trifluoromethyl)phenyl)-4-oxo-2-thioxoimidazolidin-1-yl)-2-fluoro-N-methylbenzamide] was tested, and the “Effect on transcriptional activity of AR F876L in EGFP reporter assay (agonism or antagonism)” value (AR F876L) was “agonist” and the “Effect on transcriptional activity of AR WT in EGFP reporter assay (agonism or antagonism)” value (AR WT) was “agonist”.

In the case of `CNC(=O)c1ccc(N2C(=S)N(c3cnc(C#N)c(C(F)(F)F)c3)C(=O)C23CCCC(C)(C)C3)cc1F` (racemic) [(±)-DR106, 4-(3-(6-cyano-5-(trifluoromethyl)pyridin-3-yl)-7,7-dimethyl-4-oxo-2-thioxo-1,3-diazaspiro[4.5]decan-1-yl)-2-fluoro-N-methylbenzamide], the “Effect on transcriptional activity of AR F876L in EGFP reporter assay (agonism or antagonism)” value (AR F876L) is reported as “effectively antagonized; also recorded: AR F876L inhibition” and the “Effect on transcriptional activity of AR WT in EGFP reporter assay (agonism or antagonism)” value (AR WT) is reported as “effectively antagonized”.

`CNC(=O)c1ccc(N2C(=S)N(c3ccc(C#N)c(C(F)(F)F)c3)C(=O)C23CCCCC3)cc1F` [DR101, 4-(3-(4-cyano-3-(trifluoromethyl)phenyl)-4-oxo-2-thioxo-1,3-diazaspiro[4.5]decan-1-yl)-2-fluoro-N-methylbenzamide] was tested, and the “Effect on transcriptional activity of AR F876L in EGFP reporter assay (agonism or antagonism)” value (AR F876L) was “agonist”, the “Growth of VCaP cells, AR WT” value [5] was “only inhibit the growth of VCaP/AR WT” and the “Growth of VCaP cells overexpressing AR F876L” value [8] was “did not inhibit cell growth”.

In the case of `CNC(=O)c1ccc(N2C(=S)N(c3ccc(C#N)c(C(F)(F)F)c3)C(=O)C23CC(C)(C)CC(C)(C)C3)cc1F` [DR105, 4-(3-(4-cyano-3-(trifluoromethyl)phenyl)-7,7,9,9-tetramethyl-4-oxo-2-thioxo-1,3-diazaspiro[4.5]decan-1-yl)-2-fluoro-N-methylbenzamide], the “Effect on transcriptional activity of AR F876L in EGFP reporter assay (agonism or antagonism)” value (AR F876L) is reported as “effectively antagonized; also recorded: inhibited” and the “Effect on transcriptional activity of AR WT in EGFP reporter assay (agonism or antagonism)” value (AR WT) is reported as “effectively antagonized; also recorded: inhibited”.
